Experiments:
[1] = xn = mol fraction of the nth substance listed; conditions: 298.15 K, 101 kPa, Liquid, Vibrating tube method
[2] = excess molar enthalpy (molar enthalpy of mixing); xn = mol fraction of the nth substance listed; conditions: 298.15 K, 101 kPa, Liquid

BrCCCCCCBr [1,6-dibromohexane] + CCCCC(=O)OCC
Conditions | excess molar enthalpy [kcal/mol] | mass density [kg/m3]
[1], x2 = 0.0648 | – | 1555.13
[1], x2 = 0.1774 | – | 1474.02
[1], x2 = 0.2329 | – | 1433.91
[1], x2 = 0.2964 | – | 1387.86
[1], x2 = 0.4137 | – | 1302.47
[1], x2 = 0.5312 | – | 1216.59
[1], x2 = 0.5868 | – | 1175.74
[1], x2 = 0.6906 | – | 1099.24
[1], x2 = 0.7612 | – | 1047.08
[1], x2 = 0.819 | – | 1004.24
[1], x2 = 0.8814 | – | 957.89
[1], x2 = 0.934 | – | 918.67
[2], x2 = 0.0622 | 0.00727 | –
[2], x2 = 0.1322 | 0.011 | –
[2], x2 = 0.2027 | 0.0138 | –
[2], x2 = 0.2702 | 0.015 | –
[2], x2 = 0.3359 | 0.0146 | –
[2], x2 = 0.3944 | 0.0124 | –
[2], x2 = 0.4464 | 0.00935 | –
[2], x2 = 0.4901 | 0.00566 | –
[2], x2 = 0.5274 | 0.00182 | –
[2], x2 = 0.5624 | -0.00213 | –
[2], x2 = 0.6245 | -0.00614 | –
[2], x2 = 0.6853 | -0.00767 | –
[2], x2 = 0.7481 | -0.00784 | –
[2], x2 = 0.8143 | -0.00715 | –
[2], x2 = 0.8791 | -0.00547 | –
[2], x2 = 0.947 | -0.00327 | –

BrCCCCCCBr [1,6-dibromohexane] + CCOC(=O)CC
Conditions | excess molar enthalpy [kcal/mol] | mass density [kg/m3]
[1], x2 = 0.0785 | – | 1558.6
[1], x2 = 0.1542 | – | 1515.02
[1], x2 = 0.223 | – | 1474.07
[1], x2 = 0.2897 | – | 1432.85
[1], x2 = 0.3566 | – | 1390.07
[1], x2 = 0.4169 | – | 1350.15
[1], x2 = 0.5364 | – | 1266.98
[1], x2 = 0.595 | – | 1224.16
[1], x2 = 0.6523 | – | 1181.7
[1], x2 = 0.7055 | – | 1139.41
[1], x2 = 0.7573 | – | 1097.77
[1], x2 = 0.8052 | – | 1058.09
[1], x2 = 0.8583 | – | 1012.69
[1], x2 = 0.9041 | – | 972.41
[2], x2 = 0.0655 | 0.0105 | –
[2], x2 = 0.1421 | 0.0184 | –
[2], x2 = 0.2176 | 0.0235 | –
[2], x2 = 0.2889 | 0.0262 | –
[2], x2 = 0.3565 | 0.0268 | –
[2], x2 = 0.4183 | 0.0255 | –
[2], x2 = 0.4746 | 0.0226 | –
[2], x2 = 0.5242 | 0.0188 | –
[2], x2 = 0.5687 | 0.0148 | –
[2], x2 = 0.5968 | 0.0125 | –
[2], x2 = 0.6497 | 0.00894 | –
[2], x2 = 0.7061 | 0.00605 | –
[2], x2 = 0.7663 | 0.0043 | –
[2], x2 = 0.8256 | 0.00308 | –
[2], x2 = 0.8846 | 0.00189 | –
[2], x2 = 0.9439 | 0.000693 | –
